This is an account of results in BindingDB's records for doi:10.1016/s0968-0896(99)00101-7 (Otsuka Pharmaceutical Co., Ltd, 1999).

One assay has as its target Vasopressin V1a receptor (Homo sapiens, UniProt P37288). The assay can be described thus: Radioligand Binding Assay to HeLa Cells. As to the method: (§1) After reaching confluence in 12-well or 24-well dishes, the cells were washed twice with ice-cold PBS and incubated for 2 hr with [3H]-AVP at 4 deg C. For the competition experiment, test compounds were dissolved in dimethyl sulfoxide, diluted with DMEM medium and added into the wells at several appropriate concentrations. […] The protein content of the lysed cells was determined by the method of Bradford.

For another assay, the target named is Vasopressin V2 receptor (Homo sapiens, UniProt P30518). The assay is described as follows: Radioligand Binding Assay to HeLa Cells. To be noted: pH 7.4; 4 °C. As to the method:
as §1

Chain of Vasopressin V1a receptor (P37288 whole entry): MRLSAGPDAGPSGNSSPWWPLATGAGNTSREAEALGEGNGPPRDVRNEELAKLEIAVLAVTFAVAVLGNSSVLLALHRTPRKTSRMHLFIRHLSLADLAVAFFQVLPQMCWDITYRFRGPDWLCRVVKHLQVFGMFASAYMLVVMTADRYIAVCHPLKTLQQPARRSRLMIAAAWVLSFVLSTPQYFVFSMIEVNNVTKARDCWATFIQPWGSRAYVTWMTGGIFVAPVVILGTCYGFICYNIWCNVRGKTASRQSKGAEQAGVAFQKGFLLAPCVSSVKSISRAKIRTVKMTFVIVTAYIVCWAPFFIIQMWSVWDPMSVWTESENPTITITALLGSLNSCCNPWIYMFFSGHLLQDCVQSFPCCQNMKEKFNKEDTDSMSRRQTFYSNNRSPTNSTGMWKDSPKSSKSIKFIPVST
Chain of Vasopressin V2 receptor (P30518 whole entry): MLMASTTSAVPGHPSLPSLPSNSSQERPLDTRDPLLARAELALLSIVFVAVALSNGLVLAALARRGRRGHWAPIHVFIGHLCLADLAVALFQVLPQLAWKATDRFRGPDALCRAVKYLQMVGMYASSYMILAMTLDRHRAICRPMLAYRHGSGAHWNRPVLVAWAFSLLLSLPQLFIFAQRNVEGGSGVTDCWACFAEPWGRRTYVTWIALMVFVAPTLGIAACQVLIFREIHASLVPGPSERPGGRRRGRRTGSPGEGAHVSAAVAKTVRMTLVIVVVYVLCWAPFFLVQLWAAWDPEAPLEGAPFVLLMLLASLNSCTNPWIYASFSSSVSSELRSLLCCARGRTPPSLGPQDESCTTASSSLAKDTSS

`Cc1ccccc1C(=O)Nc1ccc(C(=O)N2CCCC(O)c3cc(Cl)ccc32)cc1` (stereo not drawn) [benzazepine derivative, 20]: the IC50 at Vasopressin V1a receptor (pH 7.4, 4 °C) amounted to 17 nM; at Vasopressin V2 receptor, 3 nM.
The like results for `Cc1ccccc1C(=O)Nc1ccc(C(=O)N2CCCC(N(C)C)c3c(Cl)cccc32)cc1` (stereo not drawn) [benzazepine derivative, 17] were, in that order, 1700 nM and 190 nM.
Turning to `C=CCNC1CCCN(C(=O)c2ccc(NC(=O)c3ccccc3C)cc2)c2ccc(Cl)cc21` (stereo not drawn) [benzazepine derivative, 18], the IC50 on Vasopressin V1a receptor (pH 7.4, 4 °C) is 45 nM; on Vasopressin V2 receptor, 18 nM.
For `C=CCN(C)C1CCCN(C(=O)c2ccc(NC(=O)c3ccccc3C)cc2)c2ccc(Cl)cc21` (stereo not drawn) [benzazepine derivative, 19] the same measures were 350 nM and 97 nM.
The like results for `Cc1ccccc1C(=O)Nc1ccc(C(=O)N2CCCC(O)c3cc(Cl)ccc32)c(Cl)c1` (stereo not drawn) [benzazepine derivative, 30] were, in that order, 290 nM and 8 nM.
For `Cc1ccccc1C(=O)Nc1ccc(C(=O)N2CCCC(N(C)C)c3ccc(Cl)cc32)cc1` (stereo not drawn) [benzazepine derivative, 15] the same measures were 1200 nM and 63 nM.
For `COC1CCCN(C(=O)c2ccc(NC(=O)c3ccccc3C)cc2)c2ccc(Cl)cc21` (stereo not drawn) [benzazepine derivative, 21], the IC50 on Vasopressin V1a receptor (pH 7.4, 4 °C) is 34 nM; on Vasopressin V2 receptor, 5 nM.
Take `COc1cc(NC(=O)c2ccccc2C)ccc1C(=O)N1CCCC(O)c2cc(Cl)ccc21` (stereo not drawn) [benzazepine derivative, 33]: the IC50 at Vasopressin V1a receptor was 39 nM; at Vasopressin V2 receptor it was 13 nM.
In the case of `C=CCOC1CCCN(C(=O)c2ccc(NC(=O)c3ccccc3C)cc2)c2ccc(Cl)cc21` (stereo not drawn) [benzazepine derivative, 22], the IC50 stood at 53 nM on Vasopressin V1a receptor (pH 7.4, 4 °C) and 9 nM on Vasopressin V2 receptor.
For `Cc1ccccc1C(=O)Nc1ccc(C(=O)N2CCCC(O)c3cc(Cl)ccc32)cc1Cl` (stereo not drawn) [benzazepine derivative, 31] the same measures were 31 nM and 28 nM.
For `Cc1ccccc1C(=O)Nc1ccc(C(=O)N2CCCC(N(C)C)c3cc(Cl)ccc32)cc1` (stereo not drawn) [benzazepine derivative, 14] the same measures were 190 nM and 25 nM.
The like results for `CNC1CCCN(C(=O)c2ccc(NC(=O)c3ccccc3C)cc2)c2ccc(Cl)cc21` (stereo not drawn) [benzazepine derivative, 13a] were, in that order, 64 nM and 7 nM.
Take `Cc1ccccc1C(=O)Nc1ccc(C(=O)N2CCCC(N(C)C)c3cccc(Cl)c32)cc1` (stereo not drawn) [benzazepine derivative, 16]: the IC50 was 540 nM on Vasopressin V1a receptor (pH 7.4, 4 °C) and 140 nM on Vasopressin V2 receptor.
In the case of `COc1cc(C(=O)N2CCCC(O)c3cc(Cl)ccc32)ccc1NC(=O)c1ccccc1C` (stereo not drawn) [benzazepine derivative, 34], the IC50 on Vasopressin V1a receptor was found to be 7 nM; on Vasopressin V2 receptor, 5 nM.
